Data: PubChem BioAssay (NCI)
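48-hour exposure; five concentrations; linearly interpolated endpoints. GI50: concentration for 50% inhibition of growth. TGI marks complete inhibition of growth.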

Key:
Test in all cases: DTP human tumour cell line panel, 48 h
UO-31 renal = system: UO-31 renal
786-0 renal = system: 786-0 renal
LOX IMVI melanoma = system: LOX IMVI melanoma
MOLT-4 leukemia = system: MOLT-4 leukemia
NCI-H23 lung = system: NCI-H23 lung
U251 CNS = system: U251 CNS
A498 renal = system: A498 renal
SF-268 CNS = system: SF-268 CNS
SW-620 colon = system: SW-620 colon
T-47D breast = system: T-47D breast
HS 578T breast = system: HS 578T breast
NCI-H226 lung = system: NCI-H226 lung
MALME-3M melanoma = system: MALME-3M melanoma
HCT-15 colon = system: HCT-15 colon
OVCAR-8 ovarian = system: OVCAR-8 ovarian
SF-539 CNS = system: SF-539 CNS
HOP-92 NSCLC = system: HOP-92 NSCLC
COLO 205 colon = system: COLO 205 colon
HT29 colon = system: HT29 colon
A549 NSCLC = system: A549 NSCLC
CAKI-1 renal = system: CAKI-1 renal
HCC-2998 colon = system: HCC-2998 colon
RPMI-8226 leukemia = system: RPMI-8226 leukemia
TK-10 renal = system: TK-10 renal
SN12C renal = system: SN12C renal
CCRF-CEM leukemia = system: CCRF-CEM leukemia
SNB-75 CNS = system: SNB-75 CNS
SNB-19 CNS = system: SNB-19 CNS

COc1ccc(-c2cc(-c3cccn3C)c(C#N)c(=O)[nH]2)cc1OC
GI50 (UO-31 renal): 85.1 µM
TGI (UO-31 renal): > 100 µM
GI50 (786-0 renal): > 100 µM
TGI (786-0 renal): > 100 µM
GI50 (LOX IMVI melanoma): > 100 µM
TGI (LOX IMVI melanoma): > 100 µM
GI50 (MOLT-4 leukemia): 22.7 µM
TGI (MOLT-4 leukemia): > 100 µM
GI50 (NCI-H23 lung): > 100 µM
TGI (NCI-H23 lung): > 100 µM
GI50 (U251 CNS): > 100 µM
TGI (U251 CNS): > 100 µM
GI50 (A498 renal): 56.6 µM
TGI (A498 renal): > 100 µM
GI50 (SF-268 CNS): > 100 µM
TGI (SF-268 CNS): > 100 µM
GI50 (SW-620 colon): > 100 µM
TGI (SW-620 colon): > 100 µM
GI50 (T-47D breast): 34.7 µM
TGI (T-47D breast): > 100 µM
GI50 (HS 578T breast): > 100 µM
TGI (HS 578T breast): > 100 µM
GI50 (NCI-H226 lung): > 100 µM
TGI (NCI-H226 lung): > 100 µM
GI50 (MALME-3M melanoma): > 100 µM
TGI (MALME-3M melanoma): > 100 µM
GI50 (HCT-15 colon): > 100 µM
TGI (HCT-15 colon): > 100 µM
GI50 (OVCAR-8 ovarian): > 100 µM
TGI (OVCAR-8 ovarian): > 100 µM
GI50 (SF-539 CNS): 66.8 µM
TGI (SF-539 CNS): > 100 µM
GI50 (HOP-92 NSCLC): 0.0508 µM
TGI (HOP-92 NSCLC): 9.8 µM
GI50 (COLO 205 colon): > 100 µM
TGI (COLO 205 colon): > 100 µM
GI50 (HT29 colon): > 100 µM
TGI (HT29 colon): > 100 µM
GI50 (A549 NSCLC): > 100 µM
TGI (A549 NSCLC): > 100 µM
GI50 (CAKI-1 renal): > 100 µM
TGI (CAKI-1 renal): > 100 µM
GI50 (HCC-2998 colon): 88.7 µM
TGI (HCC-2998 colon): > 100 µM
GI50 (RPMI-8226 leukemia): > 100 µM
TGI (RPMI-8226 leukemia): > 100 µM
GI50 (TK-10 renal): > 100 µM
TGI (TK-10 renal): > 100 µM
GI50 (SN12C renal): > 100 µM
TGI (SN12C renal): > 100 µM
GI50 (CCRF-CEM leukemia): 5.02 µM
TGI (CCRF-CEM leukemia): > 100 µM
GI50 (SNB-75 CNS): 24.2 µM
TGI (SNB-75 CNS): > 100 µM
GI50 (SNB-19 CNS): > 100 µM
TGI (SNB-19 CNS): > 100 µM
